In paper PMC4860574, “Bafetinib (INNO-406) reverses multidrug resistance by inhibiting the efflux function of ABCB1 and ABCG2 transporters” (Scientific Reports, 2016):

How the values were obtained:
[1] = target: T1, ABCB1 (Homo sapiens, UniProt P08183); test: stimulation of vanadate-sensitive ATPase activity in ABCB1 membranes; format: biochemical; settings: read-out: concentration required to obtain 50% of maximal stimulation
T1 construct: full length, wild type; cell assays in SW620/Ad300 and HEK/ABCB1

[2] = target: T2, ABCG2 (Homo sapiens, UniProt Q9UNQ0); test: inhibition of vanadate-sensitive ATPase activity in ABCG2 membranes; format: biochemical; settings: read-out: concentration required to obtain 50% of maximal inhibition
T2 construct: cell assays in NCI-H460/MX20 and HEK/ABCG2-R482
T2 sequence (Q9UNQ0 1-655): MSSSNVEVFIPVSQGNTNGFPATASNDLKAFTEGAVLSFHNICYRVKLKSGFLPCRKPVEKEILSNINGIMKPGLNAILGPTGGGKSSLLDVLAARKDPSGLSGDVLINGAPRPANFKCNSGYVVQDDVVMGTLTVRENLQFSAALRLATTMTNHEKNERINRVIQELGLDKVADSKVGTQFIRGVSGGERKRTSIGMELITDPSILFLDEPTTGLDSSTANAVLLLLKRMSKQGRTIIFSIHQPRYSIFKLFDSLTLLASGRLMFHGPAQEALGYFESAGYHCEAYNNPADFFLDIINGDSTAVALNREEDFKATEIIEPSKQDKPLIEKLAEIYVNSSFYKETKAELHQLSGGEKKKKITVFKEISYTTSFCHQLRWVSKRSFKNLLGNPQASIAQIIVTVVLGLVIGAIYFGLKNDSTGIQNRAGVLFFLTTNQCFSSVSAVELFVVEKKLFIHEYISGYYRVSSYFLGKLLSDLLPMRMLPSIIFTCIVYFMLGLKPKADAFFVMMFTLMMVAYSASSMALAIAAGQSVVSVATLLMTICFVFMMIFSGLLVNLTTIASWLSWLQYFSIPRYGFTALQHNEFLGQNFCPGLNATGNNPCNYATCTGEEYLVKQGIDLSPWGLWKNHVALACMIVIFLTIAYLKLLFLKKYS
Excerpt: inhibition of vanadate-sensitive ATPase activity in ABCG2 membranes on ABCG2 | bafetinib inhibited the ATPase activity of ABCG2 in a concentration-dependent manner

T1 sequence (P08183 whole entry): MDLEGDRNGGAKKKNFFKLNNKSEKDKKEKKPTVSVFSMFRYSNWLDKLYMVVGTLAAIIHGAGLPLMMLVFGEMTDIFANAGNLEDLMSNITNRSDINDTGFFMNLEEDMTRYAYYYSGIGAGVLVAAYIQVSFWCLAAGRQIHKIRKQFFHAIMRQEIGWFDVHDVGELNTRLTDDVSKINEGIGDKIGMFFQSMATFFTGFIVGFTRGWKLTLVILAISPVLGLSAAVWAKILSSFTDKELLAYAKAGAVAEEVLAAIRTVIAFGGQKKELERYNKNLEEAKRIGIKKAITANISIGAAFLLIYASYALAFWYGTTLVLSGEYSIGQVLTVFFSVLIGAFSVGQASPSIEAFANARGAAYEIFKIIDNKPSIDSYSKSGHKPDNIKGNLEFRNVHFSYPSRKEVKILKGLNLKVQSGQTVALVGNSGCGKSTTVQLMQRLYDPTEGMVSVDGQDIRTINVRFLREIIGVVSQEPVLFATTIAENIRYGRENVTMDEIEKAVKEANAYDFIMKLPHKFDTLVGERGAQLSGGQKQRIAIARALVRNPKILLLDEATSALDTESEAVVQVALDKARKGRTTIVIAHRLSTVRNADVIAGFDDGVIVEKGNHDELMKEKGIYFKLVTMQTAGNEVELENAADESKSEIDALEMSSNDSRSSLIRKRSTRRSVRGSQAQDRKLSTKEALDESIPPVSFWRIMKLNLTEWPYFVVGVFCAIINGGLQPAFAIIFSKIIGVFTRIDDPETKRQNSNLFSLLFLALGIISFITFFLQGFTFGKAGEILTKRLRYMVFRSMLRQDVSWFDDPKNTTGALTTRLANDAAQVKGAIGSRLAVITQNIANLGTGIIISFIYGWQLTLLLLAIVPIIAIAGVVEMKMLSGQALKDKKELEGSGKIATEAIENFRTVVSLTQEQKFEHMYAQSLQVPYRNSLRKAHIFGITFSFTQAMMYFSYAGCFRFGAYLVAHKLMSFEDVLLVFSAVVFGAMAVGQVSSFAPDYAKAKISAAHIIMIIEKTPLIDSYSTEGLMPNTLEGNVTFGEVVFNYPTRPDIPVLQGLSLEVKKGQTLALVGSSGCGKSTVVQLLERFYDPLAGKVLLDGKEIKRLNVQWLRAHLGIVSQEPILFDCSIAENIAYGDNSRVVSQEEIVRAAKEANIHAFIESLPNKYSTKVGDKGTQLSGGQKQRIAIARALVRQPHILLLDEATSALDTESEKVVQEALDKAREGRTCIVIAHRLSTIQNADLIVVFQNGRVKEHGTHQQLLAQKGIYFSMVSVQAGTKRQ

## Cc1ccc(NC(=O)c2ccc(CN3CC[C@H](N(C)C)C3)c(C(F)(F)F)c2)cc1Nc1nccc(-c2cncnc2)n1 [bafetinib]
[1]
  EC50: 640 nM
[2]
  IC50: 2970 nM
